Our source for the residual kinase activity values is publication PMC11167047 (Cell Death Discovery, 2024).

Test in all cases: kinome screen (33PanQinase)
What all share (format): biochemical

One assay concerns the target T1, ERK7 (Homo sapiens, UniProt Q8TD08).
T1 construct: purchased Reaction Biology Europe GmbH (formerly ProQinase)
T1 sequence (Q8TD08 1-544): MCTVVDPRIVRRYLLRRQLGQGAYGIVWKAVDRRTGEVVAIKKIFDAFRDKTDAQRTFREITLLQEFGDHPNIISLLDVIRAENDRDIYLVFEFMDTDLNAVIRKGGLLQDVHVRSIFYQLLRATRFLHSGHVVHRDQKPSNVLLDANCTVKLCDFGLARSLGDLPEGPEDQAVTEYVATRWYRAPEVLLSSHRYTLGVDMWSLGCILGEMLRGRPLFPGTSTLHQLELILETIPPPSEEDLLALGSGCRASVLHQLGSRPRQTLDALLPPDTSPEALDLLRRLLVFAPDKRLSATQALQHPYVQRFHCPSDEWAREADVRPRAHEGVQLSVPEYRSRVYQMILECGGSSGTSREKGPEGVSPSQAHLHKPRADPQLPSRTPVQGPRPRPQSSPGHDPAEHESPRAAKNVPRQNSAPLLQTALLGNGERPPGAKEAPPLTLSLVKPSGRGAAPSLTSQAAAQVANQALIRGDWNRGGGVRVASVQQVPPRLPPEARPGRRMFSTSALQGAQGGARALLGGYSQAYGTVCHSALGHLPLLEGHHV
On the procedure: (§1) The Kinome Screening was performed by Reaction Biology Europe GmbH (http://reactionbiology.com; Freiburg i. Br., Germany).

A further assay concerns the target T2, GRK4 (Homo sapiens, UniProt P32298).
T2 construct: purchased Reaction Biology Europe GmbH (formerly ProQinase)
On the procedure: as §1

In a further assay the target is T3, SNK (Homo sapiens, UniProt Q9NYY3).
T3 construct: purchased Reaction Biology Europe GmbH (formerly ProQinase)
T3 sequence (Q9NYY3 whole entry): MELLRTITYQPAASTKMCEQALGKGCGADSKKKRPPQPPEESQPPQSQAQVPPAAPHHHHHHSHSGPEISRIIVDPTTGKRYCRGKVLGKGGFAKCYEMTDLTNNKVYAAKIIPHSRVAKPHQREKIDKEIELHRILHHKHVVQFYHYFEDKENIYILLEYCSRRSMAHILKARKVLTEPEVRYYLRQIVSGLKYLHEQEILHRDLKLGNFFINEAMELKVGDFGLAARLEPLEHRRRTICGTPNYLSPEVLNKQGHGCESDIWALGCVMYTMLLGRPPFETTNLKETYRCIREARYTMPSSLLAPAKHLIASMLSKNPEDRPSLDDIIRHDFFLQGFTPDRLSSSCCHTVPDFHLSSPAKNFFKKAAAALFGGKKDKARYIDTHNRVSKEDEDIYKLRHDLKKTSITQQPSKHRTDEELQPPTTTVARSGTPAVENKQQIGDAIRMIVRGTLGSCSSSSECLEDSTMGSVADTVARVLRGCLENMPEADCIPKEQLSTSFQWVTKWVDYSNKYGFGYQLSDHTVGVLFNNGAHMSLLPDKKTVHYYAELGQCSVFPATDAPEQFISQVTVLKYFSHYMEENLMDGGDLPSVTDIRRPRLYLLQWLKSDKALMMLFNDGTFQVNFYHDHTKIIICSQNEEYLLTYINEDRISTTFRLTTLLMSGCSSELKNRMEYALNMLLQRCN
On the procedure:
as §1

The next assay addresses T4, PIM3 (Homo sapiens, UniProt Q86V86).
T4 construct: purchased Reaction Biology Europe GmbH (formerly ProQinase)
On the procedure:
as §1

Another assay deals with T5, TEC (Homo sapiens, UniProt P42680).
T5 construct: purchased Reaction Biology Europe GmbH (formerly ProQinase)
T5 sequence (P42680 1-631): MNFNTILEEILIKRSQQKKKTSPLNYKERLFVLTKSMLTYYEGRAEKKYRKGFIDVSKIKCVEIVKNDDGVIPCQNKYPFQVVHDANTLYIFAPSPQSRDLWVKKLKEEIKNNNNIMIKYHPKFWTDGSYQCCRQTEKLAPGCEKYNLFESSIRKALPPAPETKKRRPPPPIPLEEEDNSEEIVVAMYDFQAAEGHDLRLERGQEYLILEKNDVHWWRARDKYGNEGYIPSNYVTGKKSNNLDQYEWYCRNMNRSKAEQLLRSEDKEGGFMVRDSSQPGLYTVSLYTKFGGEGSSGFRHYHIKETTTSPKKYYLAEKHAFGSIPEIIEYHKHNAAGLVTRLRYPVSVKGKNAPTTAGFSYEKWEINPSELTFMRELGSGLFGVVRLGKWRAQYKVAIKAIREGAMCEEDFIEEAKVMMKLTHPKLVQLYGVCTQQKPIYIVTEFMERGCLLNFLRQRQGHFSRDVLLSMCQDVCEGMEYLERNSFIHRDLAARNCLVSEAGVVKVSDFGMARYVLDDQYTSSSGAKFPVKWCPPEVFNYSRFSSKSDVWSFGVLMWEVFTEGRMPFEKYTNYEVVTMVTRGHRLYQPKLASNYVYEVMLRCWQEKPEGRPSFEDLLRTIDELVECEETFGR
On the procedure:
as §1

The next assay has as its target T6, MST3 (Homo sapiens, UniProt Q9Y6E0).
T6 construct: purchased Reaction Biology Europe GmbH (formerly ProQinase)
On the procedure:
as §1

In a further assay the target is T7, CDK19/CycC (Homo sapiens, UniProt Q9BWU1).
T7 construct: purchased Reaction Biology Europe GmbH (formerly ProQinase)
T7 sequence (Q9BWU1 whole entry): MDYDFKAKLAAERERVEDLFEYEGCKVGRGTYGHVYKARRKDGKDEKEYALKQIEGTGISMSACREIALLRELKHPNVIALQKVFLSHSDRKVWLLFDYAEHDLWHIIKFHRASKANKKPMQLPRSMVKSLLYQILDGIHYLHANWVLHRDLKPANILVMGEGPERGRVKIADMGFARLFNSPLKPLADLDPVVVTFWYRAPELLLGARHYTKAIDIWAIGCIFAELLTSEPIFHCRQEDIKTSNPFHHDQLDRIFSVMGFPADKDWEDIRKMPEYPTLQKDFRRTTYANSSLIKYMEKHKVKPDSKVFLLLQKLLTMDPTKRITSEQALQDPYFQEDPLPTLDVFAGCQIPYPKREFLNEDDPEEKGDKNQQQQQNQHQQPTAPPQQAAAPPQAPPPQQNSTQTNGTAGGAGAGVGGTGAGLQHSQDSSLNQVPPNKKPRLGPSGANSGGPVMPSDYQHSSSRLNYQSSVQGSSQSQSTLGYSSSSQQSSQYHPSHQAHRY
T7 sequence (P24863 whole entry partner): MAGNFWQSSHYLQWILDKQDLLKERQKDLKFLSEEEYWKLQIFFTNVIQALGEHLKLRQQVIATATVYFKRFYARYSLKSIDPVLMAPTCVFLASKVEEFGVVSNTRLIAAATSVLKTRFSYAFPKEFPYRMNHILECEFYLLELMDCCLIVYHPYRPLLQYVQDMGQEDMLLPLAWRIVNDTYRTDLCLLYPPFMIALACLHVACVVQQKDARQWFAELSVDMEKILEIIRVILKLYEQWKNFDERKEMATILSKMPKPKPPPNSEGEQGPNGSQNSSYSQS
On the procedure: as §1

The target in the next assay is T8, PAK1 (Homo sapiens, UniProt Q13153).
T8 construct: purchased Reaction Biology Europe GmbH (formerly ProQinase)
T8 sequence (Q13153 whole entry): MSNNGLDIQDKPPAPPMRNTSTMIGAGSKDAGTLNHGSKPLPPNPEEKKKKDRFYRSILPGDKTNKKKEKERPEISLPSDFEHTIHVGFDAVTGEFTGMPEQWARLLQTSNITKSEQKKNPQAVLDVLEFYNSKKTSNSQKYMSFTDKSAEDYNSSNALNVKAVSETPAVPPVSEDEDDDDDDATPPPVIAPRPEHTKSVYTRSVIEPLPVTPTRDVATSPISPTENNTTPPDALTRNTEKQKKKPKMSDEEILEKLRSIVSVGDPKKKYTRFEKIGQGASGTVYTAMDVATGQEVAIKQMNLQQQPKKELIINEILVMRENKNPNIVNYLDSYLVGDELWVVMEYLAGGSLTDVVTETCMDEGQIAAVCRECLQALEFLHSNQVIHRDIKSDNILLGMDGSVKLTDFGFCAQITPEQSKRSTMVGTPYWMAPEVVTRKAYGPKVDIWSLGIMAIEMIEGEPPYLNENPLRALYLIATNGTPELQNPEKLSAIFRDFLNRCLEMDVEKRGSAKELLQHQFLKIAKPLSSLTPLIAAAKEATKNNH
On the procedure: as §1

The target of another assay is T9, RIPK5 (Homo sapiens, UniProt Q6XUX3).
T9 construct: purchased Reaction Biology Europe GmbH (formerly ProQinase)
T9 sequence (Q6XUX3 1-929): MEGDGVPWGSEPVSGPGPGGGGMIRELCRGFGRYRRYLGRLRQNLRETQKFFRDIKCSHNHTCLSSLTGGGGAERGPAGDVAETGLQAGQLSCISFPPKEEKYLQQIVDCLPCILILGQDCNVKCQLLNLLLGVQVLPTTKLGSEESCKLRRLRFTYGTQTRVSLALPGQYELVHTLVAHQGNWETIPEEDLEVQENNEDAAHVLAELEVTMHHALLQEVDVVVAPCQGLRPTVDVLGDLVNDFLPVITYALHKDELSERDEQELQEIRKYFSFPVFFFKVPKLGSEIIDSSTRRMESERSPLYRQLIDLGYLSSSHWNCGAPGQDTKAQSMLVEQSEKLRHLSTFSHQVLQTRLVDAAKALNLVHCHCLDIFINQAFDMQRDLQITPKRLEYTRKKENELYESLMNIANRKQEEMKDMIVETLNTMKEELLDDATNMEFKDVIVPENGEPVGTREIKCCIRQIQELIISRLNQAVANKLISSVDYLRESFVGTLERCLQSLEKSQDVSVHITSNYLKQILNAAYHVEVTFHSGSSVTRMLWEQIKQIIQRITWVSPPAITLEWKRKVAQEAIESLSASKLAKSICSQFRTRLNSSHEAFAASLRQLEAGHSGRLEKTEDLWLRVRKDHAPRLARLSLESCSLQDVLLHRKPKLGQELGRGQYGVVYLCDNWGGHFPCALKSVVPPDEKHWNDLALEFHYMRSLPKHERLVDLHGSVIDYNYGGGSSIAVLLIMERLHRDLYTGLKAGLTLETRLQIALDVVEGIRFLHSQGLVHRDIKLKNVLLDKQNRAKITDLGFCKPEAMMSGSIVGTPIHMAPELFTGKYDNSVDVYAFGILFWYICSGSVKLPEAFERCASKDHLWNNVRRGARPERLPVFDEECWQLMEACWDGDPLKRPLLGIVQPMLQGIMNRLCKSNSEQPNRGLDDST
On the procedure: as §1

T6 sequence (Q9Y6E0 whole entry): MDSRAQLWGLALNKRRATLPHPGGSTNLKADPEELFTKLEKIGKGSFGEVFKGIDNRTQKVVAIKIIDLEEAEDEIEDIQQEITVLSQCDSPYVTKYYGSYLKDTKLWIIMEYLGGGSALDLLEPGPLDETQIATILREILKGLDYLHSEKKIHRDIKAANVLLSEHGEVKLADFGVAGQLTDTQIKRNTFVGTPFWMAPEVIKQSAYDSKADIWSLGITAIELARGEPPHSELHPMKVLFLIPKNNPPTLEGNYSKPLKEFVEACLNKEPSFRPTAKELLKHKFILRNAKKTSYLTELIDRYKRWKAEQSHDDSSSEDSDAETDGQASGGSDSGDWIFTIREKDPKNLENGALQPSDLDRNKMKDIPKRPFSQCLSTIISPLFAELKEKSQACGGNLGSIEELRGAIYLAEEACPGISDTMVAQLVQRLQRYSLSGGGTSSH
T2 sequence (P32298 whole entry): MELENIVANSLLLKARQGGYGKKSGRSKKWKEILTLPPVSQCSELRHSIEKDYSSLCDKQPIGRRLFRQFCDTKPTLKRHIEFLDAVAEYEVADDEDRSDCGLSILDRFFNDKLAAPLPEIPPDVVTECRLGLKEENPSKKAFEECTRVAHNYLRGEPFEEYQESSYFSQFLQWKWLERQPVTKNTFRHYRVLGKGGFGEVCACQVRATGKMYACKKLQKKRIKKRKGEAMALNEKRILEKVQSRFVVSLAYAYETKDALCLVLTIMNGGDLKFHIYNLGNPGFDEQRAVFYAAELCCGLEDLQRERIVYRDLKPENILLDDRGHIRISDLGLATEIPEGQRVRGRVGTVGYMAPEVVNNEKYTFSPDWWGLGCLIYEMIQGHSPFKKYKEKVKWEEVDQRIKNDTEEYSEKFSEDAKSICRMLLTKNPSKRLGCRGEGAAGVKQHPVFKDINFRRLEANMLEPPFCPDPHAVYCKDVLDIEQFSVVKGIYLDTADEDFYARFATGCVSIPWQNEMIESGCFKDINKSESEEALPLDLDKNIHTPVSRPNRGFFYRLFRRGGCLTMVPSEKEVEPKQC

As to `c1ccc(CNc2cc(-c3c[nH]c4ncccc34)ccn2)cc1` [meriolin 36], the residual kinase activity is recorded as 7 % of control on ERK7 (0.3 µM); -3 % of control on ERK7 (3 µM); 108 % of control at GRK4 (0.3 µM); 95 % of control on GRK4 (3 µM); 94 % of control at SNK (0.3 µM); 43 % of control at SNK (3 µM). Further, the residual kinase activity at PIM3 (0.3 µM) is reported as 85 % of control; on PIM3 (3 µM) it was 46 % of control; on TEC (0.3 µM), 114 % of control; at TEC (3 µM) it was 96 % of control; on MST3 (0.3 µM), 71 % of control; at MST3 (3 µM), 32 % of control. The residual kinase activity on CDK19/CycC (0.3 µM) was 3 % of control; at CDK19/CycC (3 µM), 0 % of control; at PAK1 (0.3 µM), 85 % of control; at PAK1 (3 µM), 76 % of control; on RIPK5 (0.3 µM) it was 58 % of control; on RIPK5 (3 µM), 16 % of control.
Take `COc1ccnc2[nH]cc(-c3cc(N)nc(N)c3)c12` [meriolin 16]: the residual kinase activity at ERK7 (0.03 µM) is 86 % of control; at ERK7 (0.3 µM), 59 % of control; at GRK4 (0.03 µM) it was 101 % of control; at GRK4 (0.3 µM) it was 90 % of control; at SNK (0.03 µM) it was 96 % of control; at SNK (0.3 µM), 98 % of control. For the same compound, the residual kinase activity is given as 118 % of control at PIM3 (0.03 µM); 68 % of control at PIM3 (0.3 µM); 110 % of control on TEC (0.03 µM); 101 % of control at TEC (0.3 µM); 101 % of control on MST3 (0.03 µM); 91 % of control at MST3 (0.3 µM). In addition, the residual kinase activity was 6 % of control on CDK19/CycC (0.03 µM); 2 % of control on CDK19/CycC (0.3 µM); 106 % of control on PAK1 (0.03 µM); 98 % of control at PAK1 (0.3 µM); 101 % of control on RIPK5 (0.03 µM); 86 % of control at RIPK5 (0.3 µM).
